According to patent US11304946B2, “2-hetarylpyrimidine-4-carboxamides as aryl hydrocarbon receptor antagonists” (Bayer Aktiengesellschaft, priority 2017, dated 2022):

Legend:
[1] = biological target: T1, Mouse AhR (Mus musculus, UniProt P30561); experiment: Transactivation assay in mouse cell line (in vitro assay 2: antagonism); format: cell-based; settings: Hepa 1c1c7 cells, AHR inducible (DRE) firefly luciferase reporter, 200 μM kynurenic acid, 20 hours
T1 sequence (P30561 1-848): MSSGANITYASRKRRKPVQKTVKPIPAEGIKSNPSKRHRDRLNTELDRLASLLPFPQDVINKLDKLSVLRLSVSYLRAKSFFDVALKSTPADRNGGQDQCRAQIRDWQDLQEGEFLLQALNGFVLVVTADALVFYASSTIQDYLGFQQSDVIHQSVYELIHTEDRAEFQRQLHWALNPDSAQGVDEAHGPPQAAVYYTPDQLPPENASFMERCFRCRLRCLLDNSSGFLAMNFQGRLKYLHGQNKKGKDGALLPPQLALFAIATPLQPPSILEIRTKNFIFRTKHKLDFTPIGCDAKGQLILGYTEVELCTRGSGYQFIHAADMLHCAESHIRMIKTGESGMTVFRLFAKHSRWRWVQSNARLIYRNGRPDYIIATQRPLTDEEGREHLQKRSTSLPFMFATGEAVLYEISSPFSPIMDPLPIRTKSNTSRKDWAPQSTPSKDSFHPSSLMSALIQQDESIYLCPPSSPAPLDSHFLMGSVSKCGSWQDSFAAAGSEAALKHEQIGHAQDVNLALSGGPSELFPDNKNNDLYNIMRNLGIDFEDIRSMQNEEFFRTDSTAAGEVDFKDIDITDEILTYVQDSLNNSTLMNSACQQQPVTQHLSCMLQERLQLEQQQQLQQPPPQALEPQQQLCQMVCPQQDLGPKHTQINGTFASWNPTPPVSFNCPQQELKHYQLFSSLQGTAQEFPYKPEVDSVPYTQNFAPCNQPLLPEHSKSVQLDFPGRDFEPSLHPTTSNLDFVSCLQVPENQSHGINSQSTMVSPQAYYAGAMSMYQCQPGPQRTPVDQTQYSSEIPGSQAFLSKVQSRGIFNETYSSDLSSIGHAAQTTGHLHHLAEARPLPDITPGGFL
Experimental: Transactivation Assay in Mouse Cell Line (In Vitro Assay 2)
(§1) Transactivation assay was carried out in Hepa 1c1c7 cells (ATCC #CRL-2026) endogenously expressing AHR. In addition the cells were stably transfected with an AHR inducible firefly luciferase reporter gene construct that carried AHR-binding sites (DRE) in its promoter. Kynurenic acid is an endogenous AHR activating ligand and was used to prestimulate test cells prior to testing the antagonistic properties of compounds.
In Vitro Assay 2: Antagonism in Mouse Cell Line
Firefly luciferase activity was determined by the SteadyGlo Luciferase Assay System (Promega, #E2550).

[2] = biological target: T2, Human AhR (Homo sapiens, UniProt P35869); experiment: Transactivation assay in human cell line (in vitro assay 1: antagonism); format: cell-based; settings: U87 glioblastoma cells, AHR inducible (DRE) firefly luciferase reporter, 150 μM kynurenic acid, 20 hours
T2 construct: host or cells: U87 glioblastoma cells, stably transfected with DRE-driven firefly luciferase and constitutive renilla reporter constructs
T2 sequence (P35869 11-848): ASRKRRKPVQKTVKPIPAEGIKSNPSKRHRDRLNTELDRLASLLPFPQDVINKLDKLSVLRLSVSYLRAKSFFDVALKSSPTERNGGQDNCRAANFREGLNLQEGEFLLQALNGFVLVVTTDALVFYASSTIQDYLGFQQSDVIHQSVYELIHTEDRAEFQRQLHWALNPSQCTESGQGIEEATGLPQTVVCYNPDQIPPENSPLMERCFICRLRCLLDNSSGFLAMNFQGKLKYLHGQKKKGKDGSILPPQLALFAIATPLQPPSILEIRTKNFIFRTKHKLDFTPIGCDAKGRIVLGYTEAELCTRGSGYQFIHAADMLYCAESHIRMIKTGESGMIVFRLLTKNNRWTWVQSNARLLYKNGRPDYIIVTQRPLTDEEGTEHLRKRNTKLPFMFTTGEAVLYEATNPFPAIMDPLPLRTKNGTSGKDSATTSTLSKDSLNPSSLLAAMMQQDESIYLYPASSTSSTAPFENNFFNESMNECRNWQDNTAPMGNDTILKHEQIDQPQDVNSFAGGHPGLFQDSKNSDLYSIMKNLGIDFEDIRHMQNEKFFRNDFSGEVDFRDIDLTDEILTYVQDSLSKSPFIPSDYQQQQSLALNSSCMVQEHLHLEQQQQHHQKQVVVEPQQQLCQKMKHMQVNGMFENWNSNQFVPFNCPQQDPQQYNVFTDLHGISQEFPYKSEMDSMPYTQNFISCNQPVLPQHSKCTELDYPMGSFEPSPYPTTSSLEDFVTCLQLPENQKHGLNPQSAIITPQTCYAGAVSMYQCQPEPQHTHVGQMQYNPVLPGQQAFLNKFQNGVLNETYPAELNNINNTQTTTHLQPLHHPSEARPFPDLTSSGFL
Experimental: Transactivation Assay in Human Cell Line (In Vitro Assay 1)
as §1, with “U87 glioblastoma” for “Hepa 1c1c7”, “(ATCC)” for “(ATCC #CRL-2026)”, “its promoter and a renilla reporter gene construct with constitutively active” for “its”
In Vitro Assay 1: Antagonism in Human Cell Line
Firefly luciferase and Renilla activity was determined by the DualGlo Luciferase Assay System (Promega, #2920). Renilla activity was used to assess toxic effects of compounds.

| SMILES | IC50 [1] [nM] | IC50 [2] [nM] |
| --- | --- | --- |
| Cc1ncc(-c2nc(C(=O)NCC(C)(C)O)cc(-c3ccc(OC(F)(F)F)cc3)n2)cn1 [Example 21, N-(2-hydroxy-2-methylpropyl)-2′-methyl-6-[4-(trifluoromethoxy)phenyl][2,5′-bipyrimidine]-4-carboxamide] | 2130 | 379 |
| C[C@@H](CO)NC(=O)c1cc(-c2ccc(OC(F)(F)F)cc2)nc(-c2cn[nH]c2)n1 [Example 41, N-[(2S)-1-hydroxypropan-2-yl]-2-(1H-pyrazol-4-yl)-6-[4-(trifluoromethoxy)phenyl]pyrimidine-4-carboxamide] | 55.8 | 97.6 |
| C[C@@H](CO)NC(=O)c1cc(-c2ccc(Cl)cc2)nc(-c2ccc(Cl)s2)n1 [Example 72, 6-(4-chlorophenyl)-2-(5-chlorothiophen-2-yl)-N-[(2S)-1-hydroxypropan-2-yl]pyrimidine-4-carboxamide] | 98.2 | 32.6 |
| C[C@@H](CO)NC(=O)c1cc(-c2ccc(OC(F)(F)F)cc2)nc(-c2cccnc2)n1 [Example 1, N-[(2S)-1-hydroxypropan-2-yl]-2-(pyridin-3-yl)-6-[4-(trifluoromethoxy)phenyl]pyrimidine-4-carboxamide] | 2.03 | 0.885 |
| C[C@@H](CO)NC(=O)c1cc(-c2ccc(OC(F)(F)F)cc2)nc(-c2ccc(Cl)s2)n1 [Example 32, 2-(5-chlorothiophen-2-yl)-N-[(2S)-1-hydroxypropan-2-yl]-6-[4-(trifluoromethoxy)phenyl]pyrimidine-4-carboxamide] | 38.8 | 46.2 |

The remaining lines, values ahead:

| IC50 [1] [nM] | IC50 [2] [nM] | SMILES |
| --- | --- | --- |
| 3.26 | 6.86 | C[C@H](NC(=O)c1cc(-c2ccc(OC(F)(F)F)cc2)nc(-c2cnn(C)c2)n1)C(C)(C)O [Example 102, N-[(2S)-3-hydroxy-3-methylbutan-2-yl]-2-(1-methyl-1H-pyrazol-4-yl)-6-[4-(trifluoromethoxy)phenyl]pyrimidine-4-carboxamide] |
| 18.9 | 22.3 | Cn1cc(-c2nc(C(=O)N[C@@H](C#N)CO)cc(-c3ccc(OC(F)(F)F)cc3)n2)cn1 [Example 101, N-[(1S)-1-cyano-2-hydroxyethyl]-2-(1-methyl-1H-pyrazol-4-yl)-6-[4-(trifluoromethoxy)phenyl]pyrimidine-4-carboxamide] |
| 8.18 | 10.1 | Cn1cc(-c2nc(C(=O)N[C@@H]3CS(=O)(=O)C[C@H]3O)cc(-c3ccc(OC(F)(F)F)cc3)n2)cn1 (relative stereo) [Example 100, N-[(trans)-4-hydroxy-1,1-dioxo-1lambda^6-thiolan-3-yl]-2-(1-methyl-1H-pyrazol-4-yl)-6-[4-(trifluoromethoxy)phenyl]pyrimidine-4-carboxamide] |
| 271 | 25.2 | Cc1nn(C)cc1-c1nc(C(=O)N[C@@H](C)CO)cc(-c2ccc(OC(F)(F)F)cc2)n1 [Example 43, 2-(1,3-dimethyl-1H-pyrazol-4-yl)-N-[(2S)-1-hydroxypropan-2-yl]-6-[4-(trifluoromethoxy)phenyl]pyrimidine-4-carboxamide] |
| 56.1 | 53.2 | Cn1cc(-c2nc(C(=O)N[C@@H]3CCC[C@H]3O)cc(-c3ccc(OC(F)(F)F)cc3)n2)cn1 (stereo in doubt) [Example 96, N-[(trans)-2-hydroxycyclopentyl]-2-(1-methyl-1H-pyrazol-4-yl)-6-[4-(trifluoromethoxy)phenyl]pyrimidine-4-carboxamide] |
| 4.34 | 7.95 | Cn1cc(-c2nc(C(=O)NC(CO)(CO)C(F)(F)F)cc(-c3ccc(OC(F)(F)F)cc3)n2)cn1 [Example 89, 2-(1-methyl-1H-pyrazol-4-yl)-N-[1,1,1-trifluoro-3-hydroxy-2-(hydroxymethyl)propan-2-yl]-6-[4-(trifluoromethoxy)phenyl]pyrimidine-4-carboxamide] |
